Values quoted from earlier work, collected in PMC4158421, “Screening-based discovery of Aspergillus fumigatus plant-type chitinase inhibitors” (Febs Letters, 2014).

Test system: A. fumigatus biofilm
Parameters: method as in PMID 23314962

CC(=O)Nc1nnc(S(N)(=O)=O)s1 [acetazolamide]
effect on A. fumigatus biofilm biomass: reduce A. fumigatus biofilm biomass
